Legend:
[1] = system: LPS-induced sepsis in C57BL/6 mice; assay: LPS-induced sepsis in mice, survival; format: in vivo, mouse
Description: Mice. 8-week-old female C57BL/6 wild-type mice were purchased from The Jackson Laboratory and maintained at the SPF facility at Harvard Medical School. All mouse experiments were conducted using protocols approved by the Animal Care and Use Committees of Boston Children's Hospital and Harvard Medical School.
(§1) Drug administration and LPS-induced sepsis in mice. […] In the indicated group of mice in FIG. 5h, copper gluconate (0.15 mg/kg) was administered intraperitoneally 6 hr prior to the first injection of DSF. Sepsis was induced in C57BL/6 mice (8-10 weeks old) by intraperitoneal injection of LPS (E. coli O111:B4) at indicated concentrations. In some experiments, mice were treated with copper gluconate (0.15 mg/kg) or vehicle by intraperitoneal injection 5 hr before LPS challenge and then given DSF (50 mg/kg) intraperitoneally dissolved in sesame oil or vehicle 4 hr before and just before LPS challenge (15 mg/kg intraperitoneally). Peritoneal cells were collected by rinsing the peritoneal cavity with ice cold PBS containing 3% FBS 6 hr after LPS challenge. To measure cytokines, blood samples were collected by tail vein bleed 12 hr post LPS challenge and allowed to clot at room temperature. Sera obtained after centrifugation at 2,000×g for 10 min were analysed for inflammatory cytokines by ELISA.
Cell death was determined by CytoTox96 assay. […] Statistical analysis was performed using the log-rank test (In FIGS. 14, 16, 17, mice/group). […] Serum was obtained 12 hrs post LPS challenge. Shown are mean±s.d. […] Statistical analysis was performed using the log-rank test (8 mice/group).

mouse GSDMA3-3C = target: T1, mouse GSDMA3-3C (Mus musculus, UniProt Q5Y4Y6); assay: Liposome leakage assay, GSDMA3-3C plus 3C protease; format: biochemical; details: read-out: IC50 of liposome leakage; 3C-cleaved GSDMA3-3C
T1 construct: other: 3C-cleaved GSDMA3-3C; Human GSDMD-3C and mouse GSDMA3-3C mutants were constructed by QuikChange Mutagenesis (Agilent Technologies); fused on or other part: His6-MBP tag, removed by TEV before use; The engineered 3C site is cut by 3C protease, so the N-terminal pore-forming fragment is set free in the well
T1 sequence (Q5Y4Y6 with tags, fused parts or gaps INS262LEVLFQGP, form open): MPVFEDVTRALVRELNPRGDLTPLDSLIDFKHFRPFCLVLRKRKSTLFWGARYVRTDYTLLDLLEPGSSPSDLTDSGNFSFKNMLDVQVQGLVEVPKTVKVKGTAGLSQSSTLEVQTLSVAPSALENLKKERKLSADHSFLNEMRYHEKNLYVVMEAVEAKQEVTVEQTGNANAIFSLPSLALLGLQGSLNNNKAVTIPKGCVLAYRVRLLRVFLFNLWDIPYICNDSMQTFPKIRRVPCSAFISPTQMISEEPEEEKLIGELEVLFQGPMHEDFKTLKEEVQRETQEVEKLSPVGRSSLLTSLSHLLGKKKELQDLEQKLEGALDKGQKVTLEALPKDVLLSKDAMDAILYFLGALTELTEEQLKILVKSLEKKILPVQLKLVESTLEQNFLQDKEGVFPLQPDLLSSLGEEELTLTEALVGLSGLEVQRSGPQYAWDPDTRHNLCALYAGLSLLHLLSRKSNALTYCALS

NLRP3, GSDMD and HMGB1 = assay: Peritoneal macrophages of LPS-challenged mice (immunoblot); format: in vivo, mouse; details: 6 hrs after LPS
Description: as §1
Peritoneal macrophages were harvested 6 hrs later and analysed for NLRP3, GSDMD and HMGB1 by immunoblot.

mouse iBMDMs = assay: Processing of caspase-1, GSDMD and IL-1β in iBMDMs (immunoblot); format: cell-based; details: 1 hr time point
Description: (§2) FIG. 97 contains a bar graph showing results of an experiment where LPS-primed THP-1 cells, after medium removal, were incubated with probe FAM-YVAD-FMK in FLICA assay buffer for another 0.5 hr before fluorescence reading. iBMDMs were pretreated with disulfiram, Bay 11-7082, necrosulfonamide (NSA) or z-VAD-fmk for 1 hr before treated or not with Nigericin for 0.5 hr. Whole cell lysates and culture supernatants were immunoblotted with the indicated antibodies.
as §2, with “FIG. 98” for “FIG. 97”, “for 1” for “for 0.5”
Canonical inflammasome assembly activates caspase-1, which cleaves pro-IL-1β and GSDMD, and the latter is needed to release processed IL-1β and to induce pyroptosis. To assess which steps in NLRP3-mediated inflammation were inhibited post ASC speck formation, LPS-primed THP-1 cells were treated with vehicle, 30 μM z-VAD-fmk or disulfiram 1 hour before adding nigericin, and cleavage and activation of caspase-1, GSDMD, and pro-IL-1β were analysed by immunoblot of whole cell lysates 30 min later and 1 hr later. Secretion of processed IL-1β was also assessed by immunoblot of culture supernatants. […] The 1 hr time point is relevant as the cell death and IL-1β release measurements used cells stimulated with nigericin for 1 and 2 hrs, respectively.

human GSDMD-3C = target: T2, human GSDMD-3C (Homo sapiens, UniProt P57764); assay: Liposome leakage assay, GSDMD-3C plus 3C protease; format: biochemical; parameters: Human GSDMD-3C and mouse GSDMA3-3C mutants were constructed by QuikChange Mutagenesis (Agilent Technologies); fused on or other part: His6-MBP tag, removed by TEV before use; The engineered 3C site is cut in the well by 3C protease
T2 sequence (P57764 1-271 limits assumed): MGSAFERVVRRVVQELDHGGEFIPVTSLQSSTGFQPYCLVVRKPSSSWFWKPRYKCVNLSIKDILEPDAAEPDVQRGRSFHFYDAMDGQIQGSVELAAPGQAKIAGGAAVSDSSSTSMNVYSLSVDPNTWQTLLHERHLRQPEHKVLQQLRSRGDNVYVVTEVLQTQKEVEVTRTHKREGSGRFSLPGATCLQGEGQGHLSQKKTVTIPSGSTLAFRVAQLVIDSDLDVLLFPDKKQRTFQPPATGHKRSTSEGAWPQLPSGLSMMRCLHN
Description: Liposome leakage assay: fluorogenic liposome leakage assay detects leakage of Tb^3+ from Tb^3+-loaded liposomes incubated with GSDMD and caspase-11 (See References 7 and 9). Liposome leakage was detected by an increase in fluorescence when Tb^3+ bound to dipicolinic acid (DPA) in Buffer C. […] The fluorescence intensity of the well was measured at 545 nm with an excitation of 276 nm 1 hr after addition of caspase-11 using a Perkin Elmer EnVision plate reader. The final percent inhibition was calculated as [(fluorescencetest compound−fluorescencenegative control)/(fluorescencepositive control−fluorescencenegative control)]×100, where a well with GSDMD without the test compound was used as positive control, and a well without caspase-11 was used as negative control.
[LC retention time. […] (b).
To determine the relative contribution of caspase-11 inhibition versus GSDMD inhibition by disulfiram in pore formation, the caspase cleavage site in GSDMD was replaced with the rhinovirus 3C protease site (GSDMD-3C) and the 3C protease was used instead of caspase-11 in the liposome leakage assay.

Row | Compound | survival ([1]; LPS 15 mg/kg, 50 mg/kg ip 24 and 4 hrs before, 96 hrs) | survival ([1]; LPS 25 mg/kg, 50 mg/kg ip 24 and 4 hrs before) | survival ([1]; LPS 25 mg/kg, 50 mg/kg ip post LPS, with copper gluconate 0.15 mg/kg) | survival ([1]; LPS 25 mg/kg, 50 mg/kg ip post LPS, without copper) | survival ([1]; LPS 50 mg/kg, 50 mg/kg ip 24 and 4 hrs before) | survival of Casp11−/− mice ([1]; LPS challenge) | survival of Gsdmd−/− mice ([1]; LPS challenge) | survival of Casp1−/− mice ([1]; lethal LPS challenge) | IC50 (mouse GSDMA3-3C) [µM] | GSDMD processing in peritoneal macrophages (NLRP3, GSDMD and HMGB1) | NLRP3 priming in mice (NLRP3, GSDMD and HMGB1) | processing of caspase-1, GSDMD and IL-1β (mouse iBMDMs) | inhibition of leakage by GSDMD-3C plus 3C protease versus GSDMD plus caspase-11 (human GSDMD-3C)
1 | CCN(CC)C(=S)SSC(=S)N(CC)CC [C-23, Tetraethylthiuram disulfide] | all the disulfiram-treated mice survived | 5 of 8 | 2 of 8 | died | 1 of 8 | did not significantly affect the survival | did not significantly affect the survival | protected | 12.1 ± 2.1 | equally processed | did not inhibit NLRP3 priming in mice | – | –
2 | Cc1ccc(S(=O)(=O)/C=C/C#N)cc1 [Bay 11-7082] | – | – | – | – | – | – | – | – | – | – | – | still inhibited processing | substantially less able to inhibit leakage

Source: patent US20210267996A1, “Compounds for inhibition of inflammation” (Children`s Medical Center Corporation, priority 2018, published 2021)
